Laboratory results published in patent US8053435B2, “Naphthalenyloxypropenyl derivatives having inhibitory activity against histone deacetylase and pharmaceutical composition comprising the same” (Korea Research Institute of Chemical Technology, priority 2006, dated 2011).

Test system: HDAC
Assay: Inhibitory activity against HDAC (BIOMOL Quantizyme Assay system, Fluor de Lys substrate)
Type: biochemical
Settings: Table 1, formula (1) series; HeLa nuclear extract as source of HDAC enzymes; enzyme reaction 1 hr; read-out: IC50 (HDAC inhibitory concentration)
Experimental: HDAC activity was analyzed using BIOMOL Quantizyme™ Assay system which comprised two steps of 1) enzyme reaction between HDAC and a substrate and 2) determination of the level of HDAC inhibitory activity.
(§1) 0.5 μl of HeLa nuclear organic layer (10 μM) (a source of HDAC enzymes) was then added thereto to a final concentration of 100 nM. The enzyme reaction was carried out for 1 hr.
Subsequently, in step 2), 2 μM tricostatin A was added to 50 μl of Flour de Lys™ developer, followed by allowing the mixture to react at room temperature for 15 minutes. The light excited at 355 nm and emitted at 460 nm from the fluorophore was measured with a fluorometric plate reader. The intensity of the fluorescence increases as the enzyme activity is higher. The HDAC inhibitory activity of each of the test compounds was determined and compared with that of the control.
0.5 μl of HeLa nuclear organic layer (10 μM) (a source of HDAC enzymes) was then added thereto to a final concentration of 100 nM, The enzyme reaction was carried out for 1 hr.
as §1, §1

IC50 [µM]	Compound
0.028	O=C(NCCCn1ccnc1)/C(=C/c1ccc(C(=O)NO)cc1)COc1cccc2ccccc12 [Example 1-2, (E)-4-(3-(3-(1H-Imidazol-1-yl)propylamino)-2-((naphthalen-1-yloxy)methyl)-3-oxopropenyl)-N-hydroxybenzamide]
0.08	COc1ccc(CCNC(=O)/C(=C/c2ccc(C(=O)NO)cc2)COc2cccc3ccccc23)cc1 [Example 1-3, (E)-4-(3-(4-Methoxyphenethylamino)-2-((naphthalen-1-yloxy)methyl)-3-oxoprop-1-enyl)-N-hydroxybenzamide]
0.014	CC(C)N(CCNC(=O)/C(=C/c1ccc(C(=O)NO)cc1)COc1cccc2ccccc12)C(C)C [Example 1-5]
0.06	O=C(NCC1CCCO1)C(=Cc1ccc(C(=O)NO)cc1)COc1cccc2ccccc12 (stereo not shown) [Example 1-9, (E)-4-(3-(Tetrahydrofuran-2-yl)methylamino)-2-((naphthalen-1-yloxy)methyl)-3-oxoprop-1-enyl)-N-hydroxybenzamide]
0.04	O=C(NCCCN1CCCC1=O)/C(=C/c1ccc(C(=O)NO)cc1)COc1cccc2ccccc12 [Example 1-11, (E)-4-(3-(3-(2-Oxopyrrolidin-1-yl)propylamino)-2-((naphthalen-1-yloxy)methyl)-3-oxoprop-1-enyl)-N-hydroxy-benzamide]
0.03	COCCNC(=O)/C(=C/c1ccc(C(=O)NO)cc1)COc1cccc2ccccc12 [Example 1-14, (E)-4-(3-(2-Methoxyethylamino)-2-((naphthalen-1-yloxy)methyl)-3-oxoprop-1-enyl)-N-hydroxybenzamide]
0.04	O=C(NC1CCCCC1)/C(=C/c1ccc(C(=O)NO)cc1)COc1cccc2ccccc12 [Example 1-15, (E)-4-(3-(Cyclohexylamino)-2-((naphthalen-1-yloxy)methyl)-3-oxoprop-1-enyl)-N-hydroxybenzamide]
0.01	O=C(NCc1cccs1)/C(=C/c1ccc(C(=O)NO)cc1)COc1cccc2ccccc12 [Example 1-16, (E)-4-(3-(Thiophen-2-ylmethylamino)-2-((naphthalen-1-yloxy)methyl)-3-oxoprop-1-enyl)-N-hydroxybenzamide]
0.021	O=C(NCCCN1CCOCC1)/C(=C/c1ccc(C(=O)NO)cc1)COc1cccc2ccccc12 [Example 1-18, (E)-4-(3-(3-Morpholinopropylamino)-2-((naphthalen-1-yloxy)methyl)-3-oxoprop-1-enyl)-N-hydroxybenzamide]
0.021	CCOCCCNC(=O)/C(=C/c1ccc(C(=O)NO)cc1)COc1cccc2ccccc12 [Example 1-21, (E)-4-(3-(3-Ethoxypropylamino)-2-((naphthalen-1-yloxy)methyl)-3-oxoprop-1-enyl)-N-hydroxybenzamide]

Compound	IC50 [µM]
(E)-(3-(3-(2-Methylpiperidin-1-yl)propylamino)-2-((naphthalen-1-yloxy)methyl)-3-oxoprop-1-enyl)-N-hydroxybenzamide [Example 1-19]	0.009

Same assay, conditions: Table 3, formula (2) series; HeLa nuclear extract as source of HDAC enzymes; enzyme reaction 1 hr; read-out: IC50 (HDAC inhibitory concentration)

IC50 [µM]	Compound
0.009	O=C(CCCC/C=C(\COc1cccc2ccccc12)C(=O)NCCc1ccc(O)cc1)NO [Example 2-2, (E)-N8-Hydroxy-N1-(4-hydroxyphenethyl)-2-((naphthalen-1-yloxy)methyl)-2-octenediamide]
0.017	COCC(C)NC(=O)/C(=C/CCCCC(=O)NO)COc1cccc2ccccc12 (stereo not shown) [Example 2-5, (E)-N8-Hydroxy-N1-(1-methoxypropan-2-yl)-2-((naphthalen-1-yloxy)methyl)-2-octenediamide]
0.02	O=C(CCCC/C=C(\COc1cccc2ccccc12)C(=O)NCCc1ccc(F)cc1)NO [Example 2-7, (E)-N1-(4-Fluorophenethyl)-N8-hydroxy-2-((naphthalen-1-yloxy)methyl)-2-octenediamide]
0.027	O=C(CCCC/C=C(\COc1cccc2ccccc12)C(=O)NCCC1=CCCCC1)NO [Example 2-9, (E)-N1-(2-Cyclohexenylethyl)-N8-hydroxy-2-((naphthalen-1-yloxy)methyl)-2-octenediamide]
0.016	O=C(CCCC/C=C(\COc1cccc2ccccc12)C(=O)NCCCN1CCCC1=O)NO [Example 2-10, (E)-N8-Hydroxy-2-((naphthalen-1-yloxy)methyl)-N1-(3-(2-oxopyrrolidin-1-yl)propyl)-2-octenediamide]
0.007	O=C(CCCC/C=C(\COc1cccc2ccccc12)C(=O)NCc1ccc(OC(F)(F)F)cc1)NO [Example 2-17, (E)-N8-Hydroxy-2-((naphthalen-1-yloxy)methyl)-N1-(4-(trifluoromethoxy)benzyl)-2-octenediamide]
0.01	O=C(CCCC/C=C(\COc1cccc2ccccc12)C(=O)NC1CCN(CC2CCCCC2)C1)NO (stereo not shown) [Example 2-18, (E)-N1-(1-(Cyclohexylmethyl)pyrrolidin-3-yl)-N8-hydroxy-2-((naphthalen-1-yloxy)methyl)-2-octenediamide]
0.022	O=C(CCCC/C=C(\COc1cccc2ccccc12)C(=O)NC1CCN(C(=O)C2CCCCC2)C1)NO (stereo not shown) [Example 2-22, (E)-N1-(1-(Cyclohexanecarbonyl)pyrrolidin-3-yl)-N8-hydroxy-2-((naphthalen-1-yloxy)methyl)-2-octenediamide]
0.012	O=C(CCCC/C=C(\COc1cccc2ccccc12)C(=O)NC1CCNC1)NO (stereo not shown) [Example 2-24, (E)-N8-Hydroxy-2-((naphthalen-1-yloxy)methyl)-N1-(pyrrolidin-3-yl)-2-octenediamide]
0.013	CCN1CCC(NC(=O)/C(=C/CCCCC(=O)NO)COc2cccc3ccccc23)CC1 [Example 2-28, (E)-N1-(1-Ethylpiperidin-4-yl)-N8-hydroxy-2-((naphthalen-1-yloxy)methyl)-2-octenediamide]

Same assay, conditions: Table 5, formula (3) series; HeLa nuclear extract as source of HDAC enzymes; enzyme reaction 1 hr; read-out: Inhibitory conc. (IC50, μM/ml)

IC50 [µM]	Compound
0.062	CC1CCCCN1CCCNC/C(=C/CCCCC(=O)NO)COc1cccc2ccccc12 (stereo not shown) [Example 3-5, (Z)—N-Hydroxy-8-(3-(2-methylpiperidin-1-yl)propylamino)-7-((naphthalen-1-yloxy)methyl)oct-6-enamide]
0.002	CN(C)CCCNC/C(=C/CCCCC(=O)NO)COc1cccc2ccccc12 [Example 3-6, (Z)-8-(3-(Dimethylamino)propylamino)-N-hydroxy-7-((naphthalen-1-yloxy)methyl)oct-6-enamide]
0.113	CCN(CC)CCCNC/C(=C/CCCCC(=O)NO)COc1cccc2ccccc12 [Example 3-12, (Z)-8-(3-(Diethylamino)propylamino)-N-hydroxy-7-((naphthalen-1-yloxy)methyl)oct-6-enamide]
0.042	CC(C)N(CCNC/C(=C/CCCCC(=O)NO)COc1cccc2ccccc12)C(C)C [Example 3-13]

Same assay, conditions: Table 7, formula (4) series; HeLa nuclear extract as source of HDAC enzymes; enzyme reaction 1 hr; read-out: HDAC Inhibitory conc. (IC50, μM/ml)

IC50 [µM]	Compound
0.14	O=C(NO)c1ccc(/C=C(/CNCc2ccc(OC(F)(F)F)cc2)COc2cccc3ccccc23)cc1 [Example 4-3, (Z)—N-hydroxy-4-(3-(naphthalen-1-yloxy)-2-((4-(trifluoromethoxy)benzylamino)methyl)prop-1-enyl)-benzamide]
0.208	CC(C)(C)OC(=O)N1CCC(NC/C(=C/c2ccc(C(=O)NO)cc2)COc2cccc3ccccc23)C1 (stereo not shown) [Example 4-4, t-butyl (Z)-3-(3-(4-(hydroxycarbamoyl)phenyl)-2-((naphthalen-1-yloxy)methyl)allylamino)-pyrrolidine-1-carboxylate]
0.02	O=C(NO)c1ccc(/C=C(/CNC2CCNC2)COc2cccc3ccccc23)cc1 (stereo not shown) [Example 4-5, (Z)—N-hydroxy-4-(3-(naphthalen-1-yloxy)-2-((pyrrolidin-3-ylamino)methyl)prop-1-enyl)-benzamide]
0.061	O=C(NO)c1ccc(/C=C(/CNC2CCN(C(=O)C3CCCCC3)C2)COc2cccc3ccccc23)cc1 (stereo not shown) [Example 4-6, (Z)-4-(3-(1-(cyclohexylcarbonyl)pyrrolidin-3-ylamino)-2-((naphthalen-1-yloxy)-methyl)prop-1-enyl)-N-hydroxybenzamide]
0.045	O=C(NO)c1ccc(/C=C(/CNC2CCN(CC3CCCCC3)C2)COc2cccc3ccccc23)cc1 (stereo not shown) [Example 4-8, (Z)-4-(3-(1-(cyclohexylmethyl)pyrrolidin-3-ylamino)-2-((naphthalen-1-yloxy)-methyl)prop-1-enyl)-N-hydroxybenzamide]
0.046	O=C(NO)c1ccc(/C=C(/CNC2CCN(Cc3ccccc3)C2)COc2cccc3ccccc23)cc1 (stereo not shown) [Example 4-9, (Z)-4-(3-(1-benzylpyrrolidin-3-ylamino)-2-((naphthalen-1-yloxy)methyl)prop-1-enyl)-N-hydroxybenzamide]
0.04	O=C(NO)c1ccc(/C=C(/CNC2CCN(C3CCCCC3)C2)COc2cccc3ccccc23)cc1 (stereo not shown) [Example 4-12, (Z)-4-(3-(1-cyclohexylpyrrolidin-3-ylamino)-2-((naphthalen-1-yloxy)methyl)prop-1-enyl)-N-hydroxybenzamide]
0.013	CN1CCCC1CCNC/C(=C/c1ccc(C(=O)NO)cc1)COc1cccc2ccccc12 (stereo not shown) [Example 4-14, (Z)—N-hydroxy-4-(3-(2-(1-methylpyrrolidin-2-yl)ethylamino)-2-((naphthalen-1-yloxy)methyl)prop-1-enyl)benzamide]
0.03	O=C(NO)c1ccc(/C=C(/CNC2CCCCC2)COc2cccc3ccccc23)cc1 [Example 4-21, (Z)-4-(3-(cyclohexylamino)-2-((naphthalen-1-yloxy)methyl)prop-1-enyl)-N-hydroxybenzamide]
